For orientation: Ki means a dissociation constant, usually derived from enzyme kinetics or from competition with a known ligand. Read a high Ki as weaker binding.

The structures appear in SMILES notation.

Among the data in BindingDB's records for PubMed 11303071 (Banyu Pharmaceutical, 2001) are Ki values, retold here.

Assay [1] deals with T1, Muscarinic acetylcholine receptor M4 (Homo sapiens, UniProt P08173).
T1 sequence (P08173 whole entry): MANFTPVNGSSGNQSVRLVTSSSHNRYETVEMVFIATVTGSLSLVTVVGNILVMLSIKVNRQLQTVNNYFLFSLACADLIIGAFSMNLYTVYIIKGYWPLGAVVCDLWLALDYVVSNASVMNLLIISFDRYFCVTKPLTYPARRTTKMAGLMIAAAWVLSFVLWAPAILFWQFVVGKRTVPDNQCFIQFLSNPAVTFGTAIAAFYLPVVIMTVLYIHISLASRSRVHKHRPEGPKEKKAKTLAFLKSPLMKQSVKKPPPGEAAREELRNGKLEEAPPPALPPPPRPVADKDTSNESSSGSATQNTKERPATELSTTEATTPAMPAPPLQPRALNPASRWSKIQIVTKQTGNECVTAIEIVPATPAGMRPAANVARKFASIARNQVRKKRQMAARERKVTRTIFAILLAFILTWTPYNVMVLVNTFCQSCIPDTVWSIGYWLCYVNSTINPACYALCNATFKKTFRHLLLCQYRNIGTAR

Assay [2] addresses T2, Muscarinic acetylcholine receptor M5 (Homo sapiens, UniProt P08912).
T2 sequence (P08912 whole entry): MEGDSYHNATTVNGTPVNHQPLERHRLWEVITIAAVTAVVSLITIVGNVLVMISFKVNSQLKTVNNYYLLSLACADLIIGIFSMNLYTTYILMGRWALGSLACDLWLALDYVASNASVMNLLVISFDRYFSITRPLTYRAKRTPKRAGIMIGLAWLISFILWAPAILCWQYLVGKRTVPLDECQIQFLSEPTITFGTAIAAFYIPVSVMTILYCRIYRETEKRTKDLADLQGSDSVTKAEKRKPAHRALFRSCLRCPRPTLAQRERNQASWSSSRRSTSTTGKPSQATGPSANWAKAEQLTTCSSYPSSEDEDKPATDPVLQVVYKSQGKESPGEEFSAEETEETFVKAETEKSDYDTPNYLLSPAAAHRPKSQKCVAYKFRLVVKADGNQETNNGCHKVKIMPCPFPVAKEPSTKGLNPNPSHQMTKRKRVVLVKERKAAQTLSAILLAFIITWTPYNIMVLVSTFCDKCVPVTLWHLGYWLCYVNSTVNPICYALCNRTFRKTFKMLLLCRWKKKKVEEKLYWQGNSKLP

For assay [3], the target named is T3, Muscarinic acetylcholine receptor M2 (Homo sapiens, UniProt P08172).
T3 sequence (P08172 whole entry): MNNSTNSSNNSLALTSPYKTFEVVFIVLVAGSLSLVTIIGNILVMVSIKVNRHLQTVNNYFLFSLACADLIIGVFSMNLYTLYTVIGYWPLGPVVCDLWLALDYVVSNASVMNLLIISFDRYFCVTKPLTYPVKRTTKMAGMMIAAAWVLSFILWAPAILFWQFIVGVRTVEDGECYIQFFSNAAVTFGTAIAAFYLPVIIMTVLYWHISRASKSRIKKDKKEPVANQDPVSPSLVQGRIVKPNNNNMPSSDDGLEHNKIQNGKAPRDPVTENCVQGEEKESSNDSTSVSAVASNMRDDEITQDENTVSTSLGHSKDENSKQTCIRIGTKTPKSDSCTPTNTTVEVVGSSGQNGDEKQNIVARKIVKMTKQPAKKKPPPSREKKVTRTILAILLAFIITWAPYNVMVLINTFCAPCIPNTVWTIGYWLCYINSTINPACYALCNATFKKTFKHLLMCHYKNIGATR

Assay [4] concerns the target Muscarinic acetylcholine receptor M3 (Rattus norvegicus, UniProt P08483).

Sequence of Muscarinic acetylcholine receptor M3 (P08483 whole entry): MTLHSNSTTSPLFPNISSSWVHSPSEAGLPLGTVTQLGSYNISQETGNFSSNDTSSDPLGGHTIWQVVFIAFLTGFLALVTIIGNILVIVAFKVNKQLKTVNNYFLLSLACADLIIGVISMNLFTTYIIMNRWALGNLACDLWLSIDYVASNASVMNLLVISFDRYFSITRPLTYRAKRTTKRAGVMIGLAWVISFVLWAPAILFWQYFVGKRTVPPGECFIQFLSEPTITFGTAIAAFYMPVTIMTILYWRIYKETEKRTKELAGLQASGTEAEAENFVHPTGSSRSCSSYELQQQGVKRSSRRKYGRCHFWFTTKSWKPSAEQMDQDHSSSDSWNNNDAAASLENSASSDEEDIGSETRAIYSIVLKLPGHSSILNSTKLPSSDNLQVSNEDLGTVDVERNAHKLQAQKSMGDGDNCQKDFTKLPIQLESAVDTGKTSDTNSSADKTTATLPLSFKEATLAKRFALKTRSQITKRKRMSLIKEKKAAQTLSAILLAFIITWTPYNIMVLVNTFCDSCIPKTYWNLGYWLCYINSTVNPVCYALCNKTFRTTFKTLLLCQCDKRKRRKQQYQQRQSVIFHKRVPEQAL

Consider `NC(=O)C(c1ccccc1)(c1ccccc1)[C@@H]1CCN(CCc2ccc3c(c2)CCO3)C1` [Enablex], for which the Ki stood at 8.6 nM in assay [1] and 2.3 nM in assay [2].
Take `NC1=COC=C(CN2CCC(NC(=O)[C@](O)(c3ccccc3)[C@@H]3CCC(F)(F)C3)CC2)N1` [Compound A]: the Ki in assay [3] is 540 nM; in assay [4] it was 2.6 nM; in assay [1] it was 15 nM; in assay [2], 7.7 nM.
